Test results published in ChEMBL document CHEMBL1157539, “Thousands of chemical starting points for antimalarial lead identification” (Nature, 2010).

Tested on: Plasmodium falciparum
Test: GSK_TCMDC: Inhibition of Plasmodium falciparum 3D7 in whole erythrocytes, using parasite LDH activity as an index of growth.
Format: functional, organism-based
Conditions: not given

`COC(=O)c1sccc1NC(=S)NC1CCC(CN2CCC(c3c[nH]c4ccccc34)CC2)CC1` (stereo unspecified) showed an XC50 of 574 nM.

Same assay, conditions: Plasmodium falciparum, 3D7

Point of comparison: `CN1CCN(c2ccnc3ccc(NC(=O)Nc4ccc5ccccc5c4)cc23)CC1`, XC50 76.6 nM. Against it:
- Nc1c(Cl)cc(C(O)CNCCCCCCOCCc2ccc(O)cc2)cc1Cl (stereo unspecified) — 9.5-fold higher, 725 nM
- Oc1ccc(CCNCCCCCCNCCc2ccc(-c3ccccc3)cc2)cc1O — 7.9-fold higher, 603 nM
- O=C(Nc1ccc(Cl)cc1)Nc1ccc(-c2ccc(-c3nc4ccccc4[nH]3)cc2)cc1 — 1.5-fold lower, 50.7 nM
- COc1cc(-c2nc(-c3ccncc3)c(-c3ccc4c(c3)CCC4=NO)[nH]2)ccc1OCCN1CCN(C)CC1 — 9.9-fold higher, 756 nM
- Fc1cccc(C=NN=c2cc[nH]c3ccccc23)c1 — 11-fold higher, 839 nM
- COc1ccc2nccc([C@@H](O)CN3CCC(NC(=O)C(c4cc5ccccc5s4)N4CCN(c5ccccc5OC)CC4)CC3)c2c1 (stereo partly specified) — 2.1-fold higher, 160 nM
- COc1cc(CC2c3cc(O)c(Cl)cc3CCN2C)c(OC)cc1C (stereo unspecified) — 9.3-fold higher, 713 nM
- O=C(/C=C/c1ccc(Cl)c(Cl)c1)NCCCCCN1CCC(NC(=O)Nc2cc(F)ccc2F)CC1 — 9.1-fold higher, 697 nM
- CCCCCCCCN1CCCN(C(=O)c2cccc(NC(=O)Nc3ccc4ccccc4c3)c2)CC1 — 9.9-fold higher, 762 nM
- COc1ccc2[nH]cc(C3CCN(CCCCNC(=O)c4ccc(NC(=O)c5ccc(Cl)cc5)cc4)CC3)c2c1 — 13-fold higher, 1020 nM
- Cc1cc(-c2cccc3c(NC(=O)N4CCc5cc6nccc(N7CCN8CCC[C@H]8C7)c6cc54)cccc23)cc(C)n1 — 6.3-fold higher, 485 nM
- COC(=O)c1sccc1NC(=S)NC1CCC(CN2CCC(c3c[nH]c4ccccc34)CC2)CC1 (stereo unspecified) — 12-fold higher, 915 nM
- CCn1c(C=Cc2cc(Br)ccc2O)nc2ccccc2c1=O — 8.5-fold higher, 654 nM
- Nc1nc(N)c2c(Cl)c(CNc3cccc(C(=O)O)c3)ccc2n1 — 8.6-fold lower, 8.88 nM
- CCN(CC)CCNc1ccnc2[nH]c3ccc(Cl)cc3c12 — 3.2-fold higher, 245 nM
- O=C(NCC1CCC(C(=O)NCCN2CCCCC2)CC1)c1ccc(O)c(-c2ccc(Cl)c(Cl)c2)c1 (stereo unspecified) — 15-fold higher, 1170 nM
- N#Cc1cccc(NC(=O)Nc2cccc(-c3cccc(-c4nc5ccccc5[nH]4)c3)c2)c1 — within 1.5-fold, 90.2 nM
- COc1cc(Cc2cnc(N)nc2N)c2ccsc2c1OC — 14-fold higher, 1070 nM
- CCCNC(=O)CN1CN(c2ccccc2)C2(CCN(C(=O)c3ccc(C(C)(C)C)cc3)CC2)C1=O — 6.1-fold higher, 466 nM
- COc1ccc2c(c1)OC(C)(C)CC2=NOS(=O)(=O)c1ccc(C)cc1 — 2.7-fold higher, 208 nM
- CSc1nc2cc3c(cc2n1C(=O)c1ccc(C)cc1)OCCO3 — 2.2-fold higher, 166 nM
- Oc1ccc2[nH]c(-c3ccc(F)cc3F)nc2c1CN1CCC(O)(c2ccccc2)CC1 — 11-fold higher, 839 nM
- CC1CN(Cc2cccc(F)c2)CCN1c1ccc(NC(=O)c2cccs2)cc1 (stereo unspecified) — 5.8-fold higher, 448 nM
- CC(C)[C@H](NC(=O)c1ccc(O)c(-c2ccc(Cl)c(Cl)c2)c1)C(=O)NCCN(C)C — 14-fold higher, 1050 nM
- CON(C)C(=O)[C@@H](CCCCNC(=O)OCc1ccccc1)NC(=O)OC(C)(C)C — 2.5-fold higher, 195 nM
- CS(=O)(=O)Nc1cccc(-c2cnc3[nH]cc(-c4ccc(CN)cc4)c3c2)c1 — 13-fold higher, 986 nM
- Cn1nc(C(F)(F)F)c(-c2ccc(F)cc2)c1NC(=O)Nc1ccccc1 — 10-fold higher, 804 nM
- CN1CCN(c2cccc(-c3nnc(-c4ccc(OCC(=O)NCc5ccc(C(F)(F)F)cc5)c([N+](=O)[O-])c4)o3)c2)CC1 — 8.6-fold higher, 661 nM
- CCCCCCn1c(Sc2ccc(C#N)c([N+](=O)[O-])c2)nnc1-c1cc(OC)cc(OC)c1 — 10-fold higher, 771 nM
- N#Cc1ccc(N/C(=N\c2ccccc2Cl)NC2CCN(Cc3ccccc3)CC2)c(O)c1 — 3.9-fold higher, 300 nM
- Cc1nc(C)c(-c2ccc(Oc3ccc(Cl)cc3)cc2)c(O)c1I — 12-fold higher, 957 nM
- COc1ccc2nccc([C@@H](O)CN3CCC(NC(=O)Cc4cccc5c(Br)cccc45)CC3)c2c1 — 10-fold higher, 796 nM
- Cc1ccc(NC(=O)c2cc(S(=O)(=O)NC(C)(C)C)ccc2C)nc1 — 9.9-fold higher, 756 nM
- COc1cc(Cc2cnc(N)nc2N)ccc1Oc1ccc(N)cc1 — 11-fold higher, 868 nM
- Cc1noc(-c2ccc3c(c2)CCN(CCC2CCC(NC(=O)/C=C/c4cccc(Cl)c4)CC2)CC3)n1 (stereo unspecified) — 13-fold higher, 998 nM
- O=C(Nc1ccc(S(=O)(=O)N2CCCCCC2)cc1)c1cc(-c2ccccc2O)n[nH]1 — 9.4-fold higher, 717 nM
- CCCCCN1CCCC1CNS(=O)(=O)c1ccc(C(=O)Nc2cccc(C(F)(F)F)c2)cc1 (stereo unspecified) — 14-fold higher, 1060 nM
- Cc1[nH]c(C)c(-c2ccc(-c3ccc(C(F)F)cc3)nc2)c(=O)c1Cl — 3.1-fold higher, 241 nM
- COc1cc(OC)cc(-c2nnc(Sc3ccc(C#N)c([N+](=O)[O-])c3)n2C)c1 — 12-fold higher, 937 nM
- COc1ccc(CCNc2nc(SCc3ccccc3Cl)nc3ccccc23)cc1OC — 12-fold higher, 943 nM
- O=[N+]([O-])c1ccc(/C=N/O)nc1 — 11-fold higher, 872 nM
- COc1ccc(NC(=O)c2ccc(-c3nc(-c4ccc(Cl)cc4)cs3)cc2)cc1N1CCN(C)CC1 — 12-fold higher, 921 nM
- COCCn1c(C)nc2ccccc2c1=O — 19-fold higher, 1460 nM
- O=C(NC1CCC(CN2CCC(c3c[nH]c4ccccc34)CC2)CC1)c1[nH]c(=O)[nH]c(=O)c1F (stereo unspecified) — 10-fold higher, 796 nM
- COC(=O)c1noc(C)c1I — 10-fold higher, 802 nM
- CN(C)CC1CCCN1Cc1ccccc1-c1cnn(C)c(=O)c1Oc1ccccc1F (stereo unspecified) — 17-fold higher, 1310 nM
- N=C(NCCc1ccc(Cl)cc1)c1ccc(Cl)c(Cl)c1 — 14-fold higher, 1100 nM
- CN(C)c1ccc(-c2csc(C(=O)NC3CCCCN(CCC(C)(C)C)C3)c2)cc1 (stereo unspecified) — 14-fold higher, 1050 nM
- CC(C(=O)NC1CCN(c2ccnc(Nc3ccc(F)cc3)n2)C1)c1ccc(Cl)cc1 (stereo unspecified) — 11-fold higher, 860 nM
- Cc1[nH]c2ccc(O)cc2c1C1CCN(CC2CCN(C(=O)/C=C/c3ccc(Cl)c(Cl)c3)CC2)CC1 — 13-fold higher, 998 nM
- CC1(C)CCCN(C(=O)c2cccc(-n3nc(-c4ccc(Cl)cc4)cc3N)c2)C1 — 9.3-fold higher, 712 nM
- O=C(Nc1ccc(Cl)cc1)c1cc(Cl)cc2nc(C(F)(F)F)[nH]c12 — 1.7-fold higher, 131 nM
- CCN(CCCN1CCCCC1)c1cc(C)nc(Nc2cccc(C(F)(F)F)c2)n1 — 3.8-fold higher, 289 nM
- O=C(C=Cc1ccc(Cl)c(Cl)c1)NCCCCCN1CCC(CCCNC(=O)c2sc3ccccc3c2Cl)CC1 — 5.2-fold higher, 398 nM
- COc1ccc2ncc(F)c(CCN3CC[C@@H](CNCc4cc5c(cn4)OCS5)C3)c2n1 — 15-fold higher, 1160 nM
- COc1ccc2nc3cc(Cl)ccc3c(NCCO)c2c1 — 10-fold higher, 800 nM
- COc1ccccc1C1CN(Cc2coc3ccccc3c2=O)Cc2ccccc2O1 (stereo unspecified) — 17-fold higher, 1320 nM
- C=CCn1c(C)cc(C(=O)COc2ccc(S(=O)(=O)N3CCOCC3)cc2[N+](=O)[O-])c1C — 14-fold higher, 1110 nM
- CCN(CC)c1ccc(NC(=S)NC2CCN(CCCCCNC(=O)/C=C/c3ccc(Cl)c(Cl)c3)CC2)cc1 — 12-fold higher, 883 nM
- O=C(NCCCCN1CCC(O)(c2ccc3c(c2)OCO3)CC1)c1ccc(NC(=O)c2ccc(Cl)cc2)cc1 — 15-fold higher, 1180 nM
- COc1ccc(C(=O)Nc2ccc(Cl)cc2C(=O)Nc2ccncc2)cc1 — 11-fold higher, 822 nM
- CS(=O)(=O)c1ccc(CNCc2cccc(-c3cccc(-c4nc5cc(F)ccc5[nH]4)c3)c2)cc1 — 7.3-fold higher, 559 nM
- N#Cc1c(N)nc(SCC(=O)Nc2cc(C(F)(F)F)ccc2Cl)c(C#N)c1-c1cccs1 — 9.7-fold higher, 743 nM
- CCCCCCCCNc1c2ccc(Cl)cc2nc2ccc(OC)cc12 — 11-fold higher, 805 nM
- CN(C)Cc1c(O)ccc2[nH]c(-c3ccc(F)cc3F)nc12 — 17-fold higher, 1300 nM
- O=c1cc(NCCCNCc2cc(Br)cs2)[nH]c2ccccc12 — 14-fold higher, 1060 nM
- COc1ccc2nccc(N3CCN(CCNCc4ccc5c(n4)NC(=O)CO5)CC3)c2c1 — 15-fold higher, 1160 nM
- CCN1CCN(CCCNc2c3ccccc3nc3ccccc23)CC1 — 10-fold higher, 798 nM
- Nc1c2c(nc3ccc(NC(=O)CCCCCCc4ccccc4)cc13)CCCC2 — 3.2-fold higher, 248 nM
- CN(CCN)Cc1cccc(-c2cccc(-c3nc4cc(F)ccc4[nH]3)c2)c1 — 10-fold higher, 785 nM
- CS(=O)(=O)c1ccc(CCNCc2ccc(-c3ccc(CN(C(=O)c4cccc(C#N)c4)C4CCN(Cc5ccccc5)CC4)cc3)nc2)cc1 — 13-fold higher, 977 nM
- COCCNC(=O)c1ccc(OC2CCN(Cc3ccc(F)c(F)c3)CC2)c(Cl)c1 — 19-fold higher, 1490 nM
- Cc1ccc(NC(=O)Nc2ccc(Cl)cc2)cc1-c1ccc(C(=O)Nc2ccncc2)cc1 — 7-fold higher, 534 nM
- O=S(=O)(NCCN1CCCC1)c1cccc(-c2ccc(CNCc3ccc(F)cc3)cc2)c1 — 3.1-fold higher, 234 nM
- c1ccc2[nH]c(-c3ccc(-c4ccc(CNCCc5ccncc5)cc4)s3)nc2c1 — 2.1-fold higher, 158 nM
- c1ccc(CN2CCC(NCc3ccccc3-c3cccc(CNCc4ccc5c(c4)OCO5)c3)CC2)cc1 — 7.5-fold higher, 573 nM
- Cc1ccc(NC(=O)NC2CCN(CCCCCNC(=O)/C=C/c3ccc(Cl)c(Cl)c3)CC2)cc1C — 9.6-fold higher, 733 nM
- Cc1ccc(CC(C)NCC(O)c2cccc(C(F)(F)F)c2)c(C)c1 (stereo unspecified) — 9.2-fold higher, 703 nM
- N=C(N)NC(=O)Nc1cc(Cl)c(Cl)c(C(F)(F)F)c1 — 8-fold higher, 611 nM
- Cn1cncc1-c1ccc2ncnc(Nc3ccc4c(cnn4Cc4ccccc4)c3)c2c1 — 2.3-fold higher, 180 nM
- CCn1cnc2c(N3CCCC3=O)cc(C(=O)N[C@@H](Cc3ccccc3)[C@H](O)CNC3CCCCC3)cc21 — 7.5-fold higher, 574 nM
- CCN(CC)CCCNc1cc[n+]([O-])c2cc3ccccc3cc12 — 11-fold higher, 871 nM
- CN(C)c1ccc(/N=C2/N/C(=N/c3ccc(N(C)C)cc3)c3ccccc32)cc1 — 11-fold higher, 848 nM
- CC(C)(C)c1nn(-c2ccccc2)c2[nH]c(=O)c(CNC3CCCC3)cc12 — 11-fold higher, 850 nM
- N#Cc1ccc2c(c1)CCN(CCC1CCC(Nc3ncnc4ccccc34)CC1)C2 (stereo unspecified) — 8.3-fold higher, 635 nM
- COc1ccc(CN(C)Cc2cc(C(C)C)c(C)cc2O)cc1F — 8.5-fold higher, 654 nM
- COc1ccc2nccc(N3CCN(CCNCc4ccc5c(n4)NC(=O)CS5)CC3)c2n1 — 11-fold higher, 843 nM
- CC(C)(C)c1ccccc1SC1=C(O)CC2(CCNCC2)OC1=O — 12-fold higher, 884 nM
- CCOc1cc(Cc2cnc(N)nc2N)ccc1OC — 16-fold higher, 1250 nM
- COc1ccc(CNCCc2cccs2)cc1-c1ccc(S(=O)(=O)NCCN2CCCC2)cc1 — 8.6-fold higher, 655 nM
- Clc1cc(Cl)c2cc(CNCCCNc3ccc4ccccc4n3)[nH]c2c1 — 4.4-fold higher, 339 nM
- CC(=O)N(Cc1ccccc1-c1ccc(CNCCc2ccccc2)cc1)C1CCN(Cc2ccccc2)CC1 — 6.2-fold higher, 475 nM
- O=C(N[C@@H](CC1CCCCC1)C(=O)NCCN1CCCC1)c1ccc(O)c(-c2cccc(C(F)(F)F)c2)c1 — 9.9-fold higher, 760 nM
- CN1CCN(Cc2cc3cc(NC(=O)/C=C/c4ccc(Cl)cc4)ccc3s2)CC1 — 10-fold higher, 767 nM
- CN(C)Cc1cccc(-c2ccc(Nc3nccc(NCC(O)c4ccccc4)n3)cc2)c1 (stereo unspecified) — 1.8-fold higher, 136 nM
- Cc1ccc(-n2c(Sc3ncnc4sccc34)nnc2N2CCCC2)cc1 — 3.4-fold higher, 263 nM
- N#CC(c1ccc(F)cc1)c1ccc2c(C(F)(F)F)cc(C(F)(F)F)nc2n1 (stereo unspecified) — 9.5-fold higher, 726 nM
- CC(C)(CC1CCCCC1)NC(=O)[C@H](CC1CCCCC1)Nc1ccc(C#N)c2ccccc12 — 7.7-fold higher, 592 nM
- Cc1[nH]c(C)c(-c2ccc(-c3ccc(Cl)cc3)nc2)c(=O)c1Cl — within 1.5-fold, 106 nM
